Source: the supplement of paper PMC10307832

Legend:
Assay in all cases: relative viability (nuclei count vs DMSO), 5 days (fraction); higher = more cells survive
[1] = compound: CC[C@@H](C)CNCC(=O)N1CCC2=C([C@@H]1COC3=CC=CC(=C3)C)C=CS2 [RU-SKI 43] + CC(=O)c1c(C)c2cnc(Nc3ccc(N4CCNCC4)cn3)nc2n(C2CCCC2)c1=O [Palbociclib] (partner 0.5 µM)
Method in brief: (§1)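 A single step with final 0.05% Triton X-100, 1% formaldehyde and 1 ug/ml Hoechst fixed the cells and stained nuclei 5 days after treatment. Lung cancer cell lines in 1536-well plates had been treated by pin tool the day after seeding with one drug alone or a fixed anchor-drug dose plus five library-drug doses (not always all listed) in √10 steps, and nuclei were counted on 4× images. Relative viability is the ratio of nuclei in treated wells to nuclei in vehicle wells, taken as the median of duplicate plates.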

[2] = compound: CC[C@@H](C)CNCC(=O)N1CCC2=C([C@@H]1COC3=CC=CC(=C3)C)C=CS2 [RU-SKI 43] + CS(=O)(=O)N1CCN(Cc2cc3nc(-c4cccc5[nH]ncc45)nc(N4CCOCC4)c3s2)CC1 [Pictilisib] (partner 1 µM)
Method in brief: as §1

[3] = compound: Cn1cc(-c2cnc3ccc4ccc(CS(=O)(=O)NCc5ccccn5)cc4c(=O)c3c2)cn1 [MK-8033] + CC1(C)CCC(c2ccc(Cl)cc2)=C(CN2CCN(c3ccc(C(=O)NS(=O)(=O)c4ccc(N[C@H](CCN5CCOCC5)CSc5ccccc5)c(S(=O)(=O)C(F)(F)F)c4)cc3)CC2)C1 [Navitoclax] (partner 0.5 µM)
Method in brief: as §1

[4] = compound: Cn1cc(-c2cnc3ccc4ccc(CS(=O)(=O)NCc5ccccn5)cc4c(=O)c3c2)cn1 [MK-8033] + C[C@]1(O)C[C@@H](c2nc(-c3ccc4ccc(-c5ccccc5)nc4c3)c3c(N)nccn32)C1 [Linsitinib] (partner 1 µM)
Method in brief: as §1

Cell Line | relative viability ([1]; first compound 0.1 µM) | relative viability ([1]; first compound 0.3162 µM) | relative viability ([1]; first compound 1 µM) | relative viability ([1]; first compound 3.162 µM) | relative viability ([1]; first compound 10 µM) | relative viability ([2]; first compound 0.1 µM) | relative viability ([2]; first compound 0.3162 µM) | relative viability ([2]; first compound 1 µM) | relative viability ([2]; first compound 3.162 µM) | relative viability ([2]; first compound 10 µM) | relative viability ([3]; first compound 0.02 µM) | relative viability ([3]; first compound 0.2 µM) | relative viability ([3]; first compound 0.6325 µM) | relative viability ([3]; first compound 2 µM) | relative viability ([4]; first compound 0.02 µM) | relative viability ([4]; first compound 0.2 µM) | relative viability ([4]; first compound 0.6325 µM) | relative viability ([4]; first compound 2 µM) | relative viability ([3]; first compound 0.06325 µM) | relative viability ([4]; first compound 0.06325 µM)
LOU-NH91 | 0.523 | 0.515 | 0.552 | 0.496 | 0.518 | 0.504 | 0.483 | 0.547 | 0.485 | 0.543 | 0.686 | 0.674 | 0.675 | 0.695 | 0.93 | 0.912 | 0.89 | 0.992 | – | –
LXF-289 | 0.605 | 0.666 | 0.615 | 0.61 | 0.607 | 0.828 | 0.809 | 0.832 | 0.794 | 0.744 | 0.945 | 0.923 | 0.979 | 0.941 | 0.926 | 1.01 | 0.96 | 0.976 | 0.928 | 0.944
NCI-H727 | – | 0.559 | 0.682 | 0.671 | 0.622 | 0.31 | 0.305 | 0.438 | 0.497 | 0.377 | 0.377 | 0.311 | 0.465 | 0.486 | 0.284 | 0.253 | 0.3 | 0.266 | 0.435 | 0.275
NCI-H2009 | 0.181 | 0.214 | 0.219 | 0.229 | 0.194 | 0.788 | 1.06 | 0.9 | 0.883 | 0.773 | 1.16 | 1.08 | 1.15 | 1.14 | 1.21 | 1.07 | 1.21 | 1.11 | 1.12 | 1.12
NCI-H1395 | 0.638 | 0.685 | 0.714 | 0.624 | 0.573 | 0.607 | 0.574 | 0.668 | 0.58 | 0.542 | 1.38 | 1.04 | 1.15 | 1.07 | 1.09 | 1.08 | 1.03 | 0.892 | 1.02 | 1.05
NCI-H1993 | 0.611 | 0.727 | 0.697 | 0.748 | 0.613 | 0.718 | 0.597 | 0.769 | 0.964 | 0.719 | 0.866 | 0.859 | 0.83 | 0.708 | 0.773 | 0.73 | 0.751 | 0.687 | 0.781 | 0.766
HCC-366 | 0.274 | 0.447 | 0.416 | 0.396 | 0.264 | 0.134 | 0.196 | 0.175 | 0.221 | 0.137 | 1.02 | 1.06 | 1.01 | 1.07 | 0.675 | 0.619 | 0.587 | 0.643 | 1.11 | 0.565
NCI-H322M | 0.459 | 0.483 | 0.44 | 0.524 | 0.457 | 0.586 | 0.469 | 0.559 | 0.51 | 0.482 | 1.24 | 1.18 | 1.2 | 1.17 | 0.964 | 0.869 | 0.996 | 0.692 | 1.08 | 0.809
